Measurements as given in patent US20120093806A1, “ANTITUMOR COMBINATIONS CONTAINING ANTIBODIES RECOGNIZING SPECIFICALLY CD38 AND CYTARABINE” (SANOFI-AVENTIS, priority 2008, published 2012).
Values joined by “and” are separate entries in the source; they are usually repeats but may differ in a detail not shown here. Equal entries are not always repeated. Where two headings read alike, the source gives them in different places.

Key:
[1] = system: human T-cell acute lymphoblastic leukemia (T-ALL) cell line, DND-41; experiment: Antitumor efficacy against advanced DND-41 tumors implanted in SCID mice; assay type: in vivo; settings: days 18, 21, 24, 27; for TFS = tumor free survivors: day 160; for T-C = tumor growth delay: median time to reach 750 mg
Experimental: This efficacy may be quantified, for example, by the log10 cell kill, which is determined according to the following formula:
log10 cell kill=T−C (days)/3.32×Td
in which T−C represents the tumor growth delay, which is the median time in days for the tumors of the treated group (T) and the tumors of the control group (C) to reach a predetermined value (1 g for example), and Td represents the time in days needed for the volume of the tumor to double in the control animals [T. H. Corbett et al., Cancer, 40: 2660-2680 (1977); F. M. Schabel et al., Cancer Drug Development, Part B, Methods in Cancer Research, 17: 3-51, New York, Academic Press Inc. (1979)]. A product is considered to be active if log10 cell kill is greater than or equal to 0.7. A product is considered to be very active if log10 cell kill is greater than 2.8.
The tumors are measured 1 to 5 times a week, depending on the tumor doubling time, until the tumor reaches approximately 2 g, or until the animal dies (if this occurs before the tumor reaches 2 g). The animals are necropsied immediately after euthanasia or death.
Tumor doubling time=3.4 days.

[2] = days 18, 21, 24, 27; for BWC = body weight change: day in parentheses in cell
Experimental: The animals subjected to the experiment, generally mice, are subcutaneously grafted bilaterally with 30 to 60 mg of a tumor fragment on day 0. The animals bearing tumors are randomized based on their tumor size before being subjected to the various treatments and controls. Chemotherapy begins when tumors have reached a predetermined size after grafting, depending on the type of tumor, and the animals are observed every day. […] The groups are then weighed once or twice a week until the end of the trial.
The selected tumor model was a transplantable human T-cell acute lymphoblastic leukemia (T-ALL) cell line, DND-41, implanted in SCID mice.
Hu38SB19 was formulated in phosphate buffer saline, without Ca^2+ and Mg^2+, pH7.4. Hu38SB19 was administered intravenously on days 18, 21, 24, 27 after tumor implantation.

[3] = hu38SB19 40.0 mg/kg/inj IV (total 160.0)
[4] = Palmo Ara-C 22.3 mg/kg/inj SC (total 89.2)
[5] = Palmo Ara-C 36.0 mg/kg/inj SC (total 144.0)
[6] = Palmo Ara-C 58.0 mg/kg/inj SC (total 232.0)

hu38SB19: humanized 38SB19 anti-CD38 antibody; VH SEQ ID NO: 66, VL chosen from SEQ ID NOS: 62 and 64
log10 cell kill [1, 3]: 0.5
TFS = tumor free survivors [1, 3]: 0/6
comment (activity class) ([1]; hu38SB19 40.0 mg/kg/inj IV (total 160.0), highest dose tested, 40 mg/kg): HDT—Inactive
comment (activity class) ([1]; hu38SB19 40.0 mg/kg/inj IV (total 160.0), highest dose tested, listed as hu38 DB19): not active
T-C = tumor growth delay [1, 3]: 6.1 days
drug death (deaths/mice treated) [2, 3]: 0/6
BWC = body weight change [2, 3]: −2.1 (19)

CCCCCCCCCCCCCCCC(=O)Nc1ccn([C@@H]2O[C@H](CO)[C@@H](O)[C@@H]2O)c(=O)n1 [Palmo Ara-C]
comment (activity class) [1, 4]: Active
log10 cell kill [1, 4]: 2.0
TFS = tumor free survivors [1, 4]: 0/6
T-C = tumor growth delay [1, 4]: 22.1 days
log10 cell kill [1, 5]: 4.3
TFS = tumor free survivors [1, 5]: no TFS and 0/6
T-C = tumor growth delay [1, 5]: 48.6 days
log10 cell kill [1, 6]: 5.4
comment (activity class) ([1]; Palmo Ara-C 58.0 mg/kg/inj SC (total 232.0), HNTD): HNTD—highly active
TFS = tumor free survivors [1, 6]: 3/6
T-C = tumor growth delay [1, 6]: 60.5 days
BWC = body weight change [2, 4]: −0.5 (32)
BWC = body weight change [2, 5]: −4.6 (30)
BWC = body weight change [2, 6]: −6.1 (31)
BWC = body weight change ([2]; Palmo Ara-C 96.3 mg/kg/inj SC (total 385.2)): −26.6 (31)
highest nontoxic dose (HNTD) ([2]; Palmo Ara-C alone, SC): 58.0 mg/kg/inj
